Assays:
HIV = conditions: HEK293T cells; ref previous study (Pribut et al. 2021); read-out: IC50 (antiviral activity, previous study); cited from earlier work
[1] = Mouse oral PK and tissue distribution, fasted state; assay type: in vivo; conditions: for Tmax: male, C57BL/6, mouse, lung, po, 10 mg/kg, tissue not stated; for lung AUC, fasted: overnight fast, final time point 24 h
Description: It is well established that oral absorption and subsequent tissue distribution of lipophilic drugs can be affected by an animal’s fed state. − Food intake serves as a stimulus for CM production in enterocytes, and therefore, variable fed states contribute to differences in prodrug absorption into the lymphatics. […] To evaluate the impact of fasting on drug absorption and distribution, we modified our protocol to include an overnight fast. This mouse PK experiment was performed as above, with the final time point extended to 24 h (instead of 18) for logistical considerations.
In accordance with the American Chemical Society Guidelines to Publication of Chemical Research, we affirm the use of standard ethical practices when housing and handling research animals, as ensured by the Emory University’s Institutional Animal Care and Use Committee (IACUC) and the Division of Animal Resources (DAR) through a rigorous protocol review, amendment, and approval process. During in vivo experiments, mice were housed in compliance with Emory University’s Division of Animal Resources (DAR) guidelines. For fasting experiments, food was removed the evening before the experiment. Mice had access to water throughout the fasting period. Food was reintroduced 4 h after oral dosing per industry standard protocols. Animals were monitored daily for signs of pain, distress, or adverse events. All procedures were conducted following protocols approved by the Institutional Animal Care and Use Committee (IACUC).
The compounds TXL, 15a, 15b, 21a, 21b, and a vehicle control were prepared at a concentration of 1 mg/mL in a 90:10 solution of olive oil (Sigma-Aldrich, cat. No. O1514) and 190-proof ethanol. The dosing for each mouse was calculated based on individual body weights to achieve a final dose of 10 mg/kg. For example, a 20 g mouse would receive 200 μL of the 1 mg/mL drug formulation, while a 25 g mouse would receive 250 μL.
In accordance with the American Chemical Society Guidelines to Publication of Chemical Research, we affirm the use of standard ethical practices when housing and handling research animals, as ensured by the Emory University’s Institutional Animal Care and Use Committee (IACUC) and the Division of Animal Resources (DAR) through a rigorous protocol review, amendment, and approval process. A total of 220 C57BL6/J male mice (aged 11–12 weeks, weight, 22–30 g) were used for these studies. Each mouse was weighed, recorded, and ear-clipped for identification. The dosing for each mouse was calculated based on individual body weights to achieve a final dose of 10 mg/kg. Animals were anesthetized using isoflurane gas before receiving a single dose of drug prepared as described above using a 22-gauge gavage needle attached to a calibrated syringe.
Time points for tissue collection were 1, 2, 4, 8, and 18 h for unfasted mice, and 1, 2, 4, 8, and 24 h for fasted mice. At each time point, the mice (n = 4 per compound per time point) were anesthetized using isoflurane and subjected to cardiac puncture for blood collection into EDTA-coated tubes. The collected blood samples were immediately placed on ice before the mice were humanely euthanized via cervical dislocation. Brain, liver, lungs, and kidneys were harvested, rinsed in PBS, and placed in prelabeled tubes. Tissues were flash-frozen in liquid nitrogen then transferred to dry ice for storage.
Tissues were weighed (∼50 mg) into homogenization tubes and ACN containing a 10 μM ITSD was added to achieve a final solvent-to-tissue ratio of 4:1. Homogenization beads were added, and the tissues were processed (Biotage Lysera, part no. 19–060) using two 20 s pulses with a 10 s interval period. Homogenate was centrifuged at maximum speed for 1 h, supernatant collected and analyzed via LC-MS using the method described previously. For plasma samples, a 50 μL aliquot was added 200 μL of ACN containing ITSD. […]

[2] = Release of parent TFV in mouse tissues after oral prodrug (fed state); conditions: 10 mg/kg oral prodrug
Description: To further evaluate the in vivo performance of 21a, we measured the release of the parent drug, TFV, in plasma (Figure a), liver (Figure b), and lung tissues collected from our PK study (fed state), and compared these levels (Figure c) with TXL.
Concentration–time profiles of parent TFV in (a) plasma and (b) liver of mice treated with either TXL or 21a (n = 3 biological replicates). (c) Summary of key TFV plasma and liver PK parameters following oral dose of TXL or 21a. Data represent the mean ± SEM.

Compound	IC50 (HIV) [nM]	Fasted:Fed PK Ratio, liver AUC ([1]; 10 mg/kg oral)	Fasted:Fed PK Ratio, liver Cmax ([1]; 10 mg/kg oral)	Fasted:Fed PK Ratio, lung AUC ([1]; 10 mg/kg oral)	Fasted:Fed PK Ratio, lung Cmax ([1]; 10 mg/kg oral)	Fasted:Fed PK Ratio, plasma AUC ([1]; 10 mg/kg oral)	Fasted:Fed PK Ratio, plasma Cmax ([1]; 10 mg/kg oral)	decrease in lung concentration under fasted conditions ([1]; 10 mg/kg oral) [%]	Tmax [1] [h]	lung AUC, fasted ([1]; 10 mg/kg oral)	increase in lung AUC in fasted versus fed mice ([1]; 10 mg/kg oral) [fold]	TFV levels (Cmax and AUC) in plasma and liver relative to 21a-treated mice [2]
C[C@H](Cn1cnc2c(N)ncnc21)OCP(=O)(O)OCCCOCCCCCCCCCCCCCCCC(F)(F)F [15a, Ammonium[(1R)-2-(6-aminopurin-9-yl)-1-methyl-ethoxy]methyl-[3-(16,16,16-trifluorohexadecoxy)propoxy]phosphinate]	50											
C[C@H](Cn1cnc2c(N)ncnc21)OCP(=O)(O)OC[C@H](COCCCCCCCCCCCCCCCC(F)(F)F)OCc1ccccc1 [21a, Ammonium[(1R)-2-(6-Aminopurin-9-yl)-1-methyl-ethoxy]methyl-[(2S)-2-benzyloxy-3-(16,16,16-trifluorohexadecoxy)propoxy]phosphinate]		0.76	1.6	0.83	0.69	2.4	0.72	17	1	59,900 h·ng/g		
CCCCCCCCCCCCCCCCOCCCOP(=O)(O)CO[C@H](C)Cn1cnc2c(N)ncnc21 [TXL, hexadecyloxypropyl (HDP)-TFV, reference compound]		0.64	1.5	2.1	2.2	1.9	1.4		4	15,600 h·ng/g	2	higher levels of TFV

— PMC12441861, “Next-Generation Lipid Prodrugs Orally Deliver Tenofovir via Enhanced Chylomicron Incorporation” (ACS Pharmacology & Translational Science, 2025)
